In patent US7692014B2, “Inhibitors of the HIV integrase enzyme” (Pfizer, Inc., priority 2004, dated 2010):

Target: T1, Full-length wild type HIV-1 integrase (SF1) (Human immunodeficiency virus type 1 group M subtype B, UniProt P04585)
T1 construct: made in house; host or cells: E. coli BL21 (DE3), pET24a vector
Experiment: Integrase strand-transfer scintillation proximity assay
Format: biochemical
Settings: IC50, integrase strand-transfer SPA
Description: Integrase Strand-Transfer Scintillation Proximity Assay Oligonucleotides
The annealed product represents preprocessed viral ds-DNA derived from the LTR U5 sequence of the viral genome. A ds-DNA control to test for non-specific interactions was made using a 3′ di-deoxy derivative of oligonucleotide #1 annealed to oligonucleotide #2. The CA overhang at the 5′ end of the non-biotinylated strand of the ds-DNA was created artificially by using a complimentary DNA oligonucleotide shortened by 2 base pairs. This configuration eliminates the requisite 3′ processing step of the integrase enzyme prior to the strand-transfer mechanism.
Host ds-DNA was prepared as an unlabeled and [^3H]-thymidine labeled product from annealed oligonucleotide #3—5-[…]-3′ (SEQ ID NO: 3), and oligonucleotide #4—5′-[…]-3′ (SEQ ID NO: 4), both synthesized by TriLink BioTechnologies, Inc. (San Diego, Calif.). The annealed product had overhanging 3′ ends of poly(dA). […] The radiolabeled product was purified using a NENSORB cartridge and stored in stabilized aqueous solution (PerkinElmer).
Reagents: Streptavidin-coated polyvinyltoluene (PVT) SPA beads were purchased from Amersham Biosciences (Piscataway, N.J.). Cesium chloride was purchased from Shelton Scientific, Inc. (Shelton, Conn.). White, polystyrene, flat-bottom, non-binding surface, 96-well plates were purchased from Corning. All other buffer components were purchased from Sigma (St. Louis, Mo.) unless otherwise indicated. Enzyme Construction: Full-length wild type HIV-1 integrase (SF1) sequence (amino acids 1-288) was constructed in a pET24a vector (Novagen, Madison, Wis.). […] Enzyme Purification: Full length wild-type HIV Integrase was expressed in E.coli BL21 (DE3) cells and induced with 1 mM isopropyl-1 thio-β-D-galactopyranoside (IPTG) when cells reached an optical density between 0.8-1.0 at 600 nm. Cells were lysed by microfluidation in 50 mM HEPES pH 7.0, 75 mM NaCl, 5 mM DTT, 1 mM 4-(2-Aminoethyl)benzenesulfonylfluoride HCl (AEBSF). Lysate was then centrifuged 20 minutes at 11 k rpm in GSA rotor in Sorvall RC-5B at 4° C. Supernant was discarded and pellet resuspended in 50 mM HEPES pH 7.0, 750 mM NaCl, 5 mM DTT, 1 mM AEBSF and homogenized in a 40 mL Dounce homogenizer for 20 minutes on ice. Homogenate was then centrifuged 20 minutes at 11 k rpm in SS34 rotor in Sorvall RC-5B at 4° C. Supernant was discarded and pellet resuspended in 50 mM HEPES pH 7.0, 750 mM NaCl, 25 mM CHAPS, 5 mM DTT, 1 mM AEBSF. Preparation was then centrifuged 20 minutes at 11 k rpm in SS34 rotor in Sorvall RC-5B at 4° C.
Supernant was then diluted 1:1 with 50 mM HEPES pH 7.0, 25 mM CHAPS, 1 mM DTT, 1 mM AEBSF and loaded onto a Q-Sepharose column pre-equilibrated with 50 mM HEPES, pH 7.0, 375 mM NaCl, 25 mM CHAPS, 1 mM DTT, 1 mM AEBSF. The flow through peak was collected and NaCl diluted to 0.1 M with 50 mM HEPES pH 7.0, 25 mM CHAPS, 1 mM DTT, 0.5 mM AEBSF and loaded onto a SP-Sepharose column pre-equilibrated with 50 mM HEPES pH 7.0, 100 mM NaCl, 25 mM CHAPS, 1 mM DTT, 0.5 mM AEBSF. After washing the column with the equilibration buffer, a 100 to 400 mM NaCl gradient was run. The eluted integrase was concentrated and run on a S-300 gel diffusion column using 50 mM HEPES pH 7.0, 500 mM NaCl, 25 mM CHAPS, 1 mM DTT, 0.5 mM AEBSF. […] All columns were run in a 4° C. cold room.
Viral DNA Bead Preparation: Streptavidin-coated SPA beads were suspended to 20 mg/mL in 25 mM 3-morpholinopropanesulfonic acid (MOPS) (pH 7.2) and 1.0% NaN3.

Compound	IC50 [nM]
CN(Cc1ccccc1)Cc1cn(Cc2ccc(F)cc2)c2cnc3c(=O)n(O)ccc3c12 [Example 54, 1-{[benzyl(methyl)amino]methyl}-3-(4-fluorobenzyl)-7-hydroxy-3,7-dihydro-6H-pyrrolo[2,3-c]-1,7-naphthyridin-6-one]	13.5

Same assay, conditions: integrase strand-transfer SPA; read-out: IC50

Compound	IC50 [nM]
O=C1NC[C@@H]2CCN(Cc3cn(Cc4ccc(F)cc4)c4cnc5c(=O)n(O)ccc5c34)C[C@H]12 [Example 56, 3-(4-fluorobenzyl)-7-hydroxy-1-{[(3aR,7aR)-3-oxooctahydro-5H-pyrrolo[3,4-c]pyridin-5-yl]methyl}-3,7-dihydro-6H-pyrrolo[2,3-c]-1,7-naphthyridin-6-one]	11.5
O=c1c2ncc3c(c(COC[C@@H](O)CO)cn3Cc3ccc(F)cc3)c2ccn1O [Example 31, 1-({[(2S)-2,3-dihydroxypropyl]oxy}methyl)-3-(4-fluorobenzyl)-7-hydroxy-3,7-dihydro-6H-pyrrolo(2,3-c]-1,7-naphthyridin-6-one]	9
NC(=O)[C@@H]1CCCN1S(=O)(=O)c1cn(Cc2ccc(F)cc2)c2cnc3c(=O)n(O)ccc3c12 [Example 20, 1-{[3-(4-fluorobenzyl)-7-hydroxy-6-oxo-6,7-dihydro-3H-pyrrolo[2,3-c]-1,7-naphthyridin-1-yl]sulfonyl)-L-prolinamide]	9
Cc1cc2c(ncc3c2ccn3Cc2ccc(F)cc2)c(=O)n1O [Example 47, 3-(4-fluorobenzyl)-7-hydroxy-8-methyl-3,7-dihydro-6H-pyrrolo[2,3-c]-1,7-naphthyridin-6-one]	11
CCCNCc1cn(Cc2ccc(F)cc2)c2cnc3c(=O)n(O)ccc3c12 [Example 40, 3-(4-fluorobenzyl)-7-hydroxy-1-[(propylamino)methyl]-3,7-dihydro-6H-pyrrolo[2,3-c]-1,7-naphthyridin-6-one]	62
O=c1c2ncc3c(c(CNC4(CO)CCCC4)cn3Cc3ccc(F)cc3)c2ccn1O [Example 39, 3-(4-fluorobenzyl)-7-hydroxy-1-({[1-(hydroxymethyl)cyclopentyl]amino)methyl)-3,7-dihydro-6H-pyrrolo[2,3-c]-1,7-naphthyridin-6-one]	79
O=C(NCc1ccccn1)c1cn(Cc2ccc(F)cc2)c2cnc3c(=O)n(O)ccc3c12 [Example 29, 3-(4-fluorobenzyl)-7-hydroxy-6-oxo-N-(pyridin-2-ylmethyl)-6,7-dihydro-3H-pyrrolo[2,3-c]-1,7-naphthyridine-1-carboxamide]	12
O=C1CCN(Cc2cn(Cc3ccc(F)cc3)c3cnc4c(=O)n(O)ccc4c23)CCN1 [Example 19, 3-(4-fluorobenzyl)-7-hydroxy-1-[(5-oxo-1,4-diazepan-1-yl)methyl]-3,7-dihydro-6H-pyrrolo[2,3-c]-1,7-naphthyridin-6-one]	5
O=C1c2ncc3c(ccn3Cc3ccc(F)cc3)c2CCN1O [Example 2, 3-(4-Fluorobenzyl)-7-hydroxy-3,7,8,9-tetrahydro-6H-pyrrolo[2,3-c]-1,7-naphthyridin-6-one]	30
O=C1CN(Cc2cn(Cc3ccc(F)cc3)c3cnc4c(=O)n(O)ccc4c23)CCN1 [Example 6, 3-(4-fluorobenzyl)-7-hydroxy-1-[(3-oxopiperazin-1-yl)methyl]-3,7-dihydro-6H-pyrrolo(2,3-c]-1,7-naphthyridin-6-one]	7
CCCN(CCO)Cc1cn(Cc2ccc(F)cc2)c2cnc3c(=O)n(O)ccc3c12 [Example 48, 3-(4-fluorobenzyl)-7-hydroxy-1-{[(2-hydroxyethyl)(propyl)amino]methyl}-3,7-dihydro-6H-pyrrolo[2,3-c]-1,7-naphthyridin-6-one]	11
O=c1c2ncc3c(c(CN4CCN5C[C@H](O)CC5C4)cn3Cc3ccc(F)cc3)c2ccn1O (stereo partly drawn) [Example 55, 3-(4-fluorobenzyl)-7-hydroxy-1-{[(7R)-7-hydroxyhexahydropyrrolo [1,2-a]pyrazin-2(1H)-yl]methyl}-3,7-dihydro-6H-pyrrolo[2,3-c]-1,7-naphthyridin-6-one]	7
O=c1c2ncc3c(c(CN4CCc5ccccc5C4)cn3Cc3ccc(F)cc3)c2ccn1O [Example 10, 1-(3,4-dihydroisoquinolin-2(1H)-ylmethyl)-3-(4-fluorobenzyl)-7-hydroxy-3,7-dihydro-6H-pyrrolo[2,3-c]-1,7-naphthyridin-6-one]	40
O=C1CCCN1CC1(O)CCN(Cc2cn(Cc3ccc(F)cc3)c3cnc4c(=O)n(O)ccc4c23)CC1 [Example 18, 3-(4-fluorobenzyl)-7-hydroxy-1-({4-hydroxy-4-[(2-oxopyrrolidin-1-yl)methyl]piperidin-1-yl}methyl)-3,7-dihydro-6H-pyrrolo[2,3-c]-1,7-naphthyridin-6-one]	11
O=C1NCCC12CCN(Cc1cn(Cc3ccc(F)cc3)c3cnc4c(=O)n(O)ccc4c13)CC2 [Example 13, 3-(4-fluorobenzyl)-7-hydroxy-1-[(1-oxo-2,8-diazaspiro[4,5]dec-8-yl)methyl]-3,7-dihydro-6H-pyrrolo[2,3-c]-1,7-naphthyridin-6-one]	8
CCN1CCN(Cc2cn(Cc3ccc(F)cc3)c3cnc4c(=O)n(O)ccc4c23)CC1 [Example 8, 1[(4-ethylpiperazin-1-yl)methyl]-3-(4-fluorobenzyl)-7-hydroxy-3,7-dihydro-6H-pyrrolo[2,3-c]-1,7-naphthyridin-6-one]	14
O=c1c2ncc3c(c(COCCOC4CCCCC4)cn3Cc3ccc(F)cc3)c2ccn1O [Example 34, 1-{[2-(cyclohexyloxy)ethoxy]methyl}-3-(4-fluorobenzyl)-7-hydroxy-3,7-dihydro-6H-pyrrolo[2,3-c]-1,7-naphthyridin-6-one]	45
O=c1c2ncc3c(c(CN4CCCCC4CO)cn3Cc3ccc(F)cc3)c2ccn1O (stereo not drawn) [Example 49, 3-(4-fluorobenzyl)-7-hydroxy-1-{[2-(hydroxymethyl)piperidin-1-yl]methyl}-3,7-dihydro-6H-pyrrolo[2,3-c]-1,7-naphthyridin-6-one]	13
O=c1c2ncc3c(c(CN4CCOCC4)cn3Cc3ccc(F)cc3)c2ccn1O [Example 57, 3-(4-fluorobenzyl)-7-hydroxy-1-(morpholin-4-ylmethyl)-3,7-dihydro-6H-pyrrolo[2,3-c]-1,7-naphthyridin-6-one]	7
Cc1cccc(CNCc2cn(Cc3ccc(F)cc3)c3cnc4c(=O)n(O)ccc4c23)c1 [Example 41, 3-(4-fluorobenzyl)-7-hydroxy-1-{[(3-methylbenzyl)amino]methyl}-3,7-dihydro-6H-pyrrolo[2,3-c]-1,7-naphthyridin-6-one]	42
O=C(NCC(F)(F)F)c1cn(Cc2ccc(F)cc2)c2cnc3c(=O)n(O)ccc3c12 [Example 30, 3-(4-fluorobenzyl)-7-hydroxy-6-oxo-N-(2,2,2-trifluoroethyl)-6,7-dihydro-3H-pyrrolo[2,3-c]-1,7-naphthyridine-1-carboxamide]	13
NC(=O)[C@H]1CCCN1Cc1cn(Cc2ccc(F)cc2)c2cnc3c(=O)n(O)ccc3c12 [Example 12, 1-{[3-(4-fluorobenzyl)-7-hydroxy-6-oxo-6,7-dihydro-3H-pyrrolo[2,3-c]-1,7-naphthyridin-1-yl]methyl)-D-prolinamide]	13
CCN(Cc1ccc(C)cc1)Cc1cn(Cc2ccc(F)cc2)c2cnc3c(=O)n(O)ccc3c12 [Example 51, 1-{[ethyl(4-methylbenzyl)amino]methyl}-3-(4-fluorobenzyl)-7-hydroxy-3,7-dihydro-6H-pyrrolo[2,3-c]-1,7-naphthyridin-6-one]	17.5
